27 molecules from US20240166652A1, “MODULATORS OF THE INTEGRATED STRESS PATHWAY” (Calico Life Sciences LLC, priority 2017, published 2024) can be followed below.

Broadly, the EC50 is the concentration giving half of the maximal effect.

This assay deals with ATF4 luciferase reporter in HEK293T cells. The experiment in a line: ATF4-Luc assay (ATF4 luciferase reporter, tunicamycin-treated HEK293T cells). In kind it is cell-based, human. The settings on record: Homo sapiens, HEK-293T; HEK293T cells carrying the ATF4 luciferase reporter, 1 μg/mL tunicamycin, 7 hours. In general terms: A reporter such as luciferase makes a cellular process visible.
`O=C1COc2c(cc(Cl)cc2OCC(=O)NC23CCC(NC(=O)COc4ccc(Cl)c(F)c4)(CC2)[C@@H](O)C3)N1` [Compound 754, 2-(4-chloro-3-fluorophenoxy)-N-[(2S)-4-{2-[(6-chloro-3-oxo-3,4-dihydro-2H-1,4-benzoxazin-8-yl)oxy]acetamido}-2-hydroxybicyclo[2.2.2]octan-1-yl]acetamide]: the EC50 is above 2000 nM.

Take `Cc1cc(F)ccc1OCC(=O)NC12CCC(NC(=O)COc3ccc(Cl)c(F)c3)(CC1)[C@@H](O)C2` [Compound 755, 2-(4-chloro-3-fluorophenoxy)-N-{(2S)-4-[2-(4-fluoro-2-methylphenoxy)acetamido]-2-hydroxybicyclo[2.2.2]octan-1-yl}acetamide]: the half-maximal effective concentration (EC50) is below 10 nM.

On to `COc1cc(OCC(=O)NC23CCC(NC(=O)COc4ccc(F)c(F)c4)(CC2)[C@@H](O)C3)ccc1F` [Compound 756, 2-(3,4-difluorophenoxy)-N-{(2S)-4-[2-(4-fluoro-3-methoxyphenoxy)acetamido]-2-hydroxybicyclo[2.2.2]octan-1-yl}acetamide], for which the concentration giving a half-maximal response (EC50) was below 10 nM.

For the molecule `COCc1cc(OCC(=O)NC23CCC(NC(=O)COc4ccc(Cl)c(F)c4)(CC2)[C@@H](O)C3)ccc1Cl` [Compound 757, 2-(4-chloro-3-fluorophenoxy)-N-[(2S)-4-{2-[4-chloro-3-(methoxymethyl)phenoxy]acetamido}-2-hydroxybicyclo[2.2.2]octan-1-yl]acetamide], the EC50 was in the range of 10 to 50 nM.

Take `O=C(COc1ccc2c(c1)OCCO2)NC12CCC(NC(=O)COc3ccc(Cl)c(F)c3)(CC1)[C@@H](O)C2` [Compound 758, 2-(4-chloro-3-fluorophenoxy)-N-[(2S)-4-{2-[(2,3-dihydro-1,4-benzodioxin-6-yl)oxy]acetamido}-2-hydroxybicyclo[2.2.2]octan-1-yl]acetamide]: the EC50 is below 10 nM.

In the case of `O=C(COc1ccc(OC(F)(F)F)c(F)c1)NC12CCC(NC(=O)COc3ccc(Cl)cc3)(CC1)[C@@H](O)C2` [Compound 759, 2-(4-chlorophenoxy)-N-[(2S)-4-{2-[3-fluoro-4-(trifluoromethoxy)phenoxy]acetamido}-2-hydroxybicyclo[2.2.2]octan-1-yl]acetamide], the EC50 is below 10 nM.

For `O=C(COc1ccc(OC(F)(F)F)c(F)c1)NC12CCC(NC(=O)COc3ccc4c(c3)OC(F)(F)O4)(CC1)[C@@H](O)C2` [Compound 760, 2-[(2,2-difluoro-2H-1,3-benzodioxol-5-yl)oxy]-N-[(2S)-4-{2-[3-fluoro-4-(trifluoromethoxy)phenoxy]acetamido}-2-hydroxybicyclo[2.2.2]octan-1-yl]acetamide], the EC50 is below 10 nM.

In the case of `O=C(COc1ccc(OC(F)(F)F)c(F)c1)NC12CCC(NC(=O)COc3ccc(Cl)c(F)c3)(CC1)[C@@H](O)C2` [Compound 761, 2-(4-chloro-3-fluorophenoxy)-N-[(2S)-4-{2-[3-fluoro-4-(trifluoromethoxy)phenoxy]acetamido}-2-hydroxybicyclo[2.2.2]octan-1-yl]acetamide], the 50% effective concentration (EC50) was below 10 nM.

Turning to `O=C(COc1ccc(OC(F)(F)F)c(F)c1)NC12CCC(NC(=O)COc3ccc(F)cc3)(CC1)[C@@H](O)C2` [Compound 762, 2-(4-fluorophenoxy)-N-[(2S)-4-{2-[3-fluoro-4-(trifluoromethoxy)phenoxy]acetamido}-2-hydroxybicyclo[2.2.2]octan-1-yl]acetamide], the EC50 was below 10 nM.

As to `O=C(COc1ccc(OC(F)(F)F)c(F)c1)NC12CCC(NC(=O)COc3ccc(F)c(F)c3)(CC1)[C@@H](O)C2` [Compound 763, 2-(3,4-difluorophenoxy)-N-[(2S)-4-{2-[3-fluoro-4-(trifluoromethoxy)phenoxy]acetamido}-2-hydroxybicyclo[2.2.2]octan-1-yl]acetamide], the EC50 was below 10 nM.

As for `O=C(COc1ccc(OC(F)(F)F)c(F)c1)NC12CCC(NC(=O)COc3ccc(OC(F)(F)F)cc3)(CC1)[C@@H](O)C2` [Compound 764, 2-[3-fluoro-4-(trifluoromethoxy)phenoxy]-N-[(3S)-3-hydroxy-4-{2-[4-(trifluoromethoxy)phenoxy]acetamido}bicyclo[2.2.2]octan-1-yl]acetamide], the concentration for a half-maximal effect (EC50) fell in the range of 10 to 50 nM.

With `CS(=O)(=O)c1ccc(OCC(=O)NC23CCC(NC(=O)COc4ccc(OC(F)(F)F)cc4)(CC2)[C@@H](O)C3)cc1F` [Compound 765, 2-[3-fluoro-4-(methanesulfonyl)phenoxy]-N-[(3S)-3-hydroxy-4-{2-[4-(trifluoromethoxy)phenoxy]acetamido}bicyclo[2.2.2]octan-1-yl]acetamide], the EC50 fell in the range of 250 to 500 nM.

`CS(=O)(=O)c1ccc(OCC(=O)NC23CCC(NC(=O)COc4ccc5c(c4)OC(F)(F)O5)(CC2)[C@@H](O)C3)cc1F` [Compound 766, 2-[(2,2-difluoro-2H-1,3-benzodioxol-5-yl)oxy]-N-[(2S)-4-{2-[3-fluoro-4-(methanesulfonyl)phenoxy]acetamido}-2-hydroxybicyclo[2.2.2]octan-1-yl]acetamide]: the EC50 was 50 to 250 nM.

In the case of `CS(=O)(=O)c1ccc(OCC(=O)NC23CCC(NC(=O)COc4ccc(F)cc4)(CC2)[C@@H](O)C3)cc1F` [Compound 767, 2-[3-fluoro-4-(methanesulfonyl)phenoxy]-N-{(3S)-4-[2-(4-fluorophenoxy)acetamido]-3-hydroxybicyclo[2.2.2]octan-1-yl}acetamide], the 50% effective concentration (EC50) lay within 250 to 500 nM.

Take `CS(=O)(=O)c1ccc(OCC(=O)NC23CCC(NC(=O)COc4ccc(F)c(F)c4)(CC2)[C@@H](O)C3)cc1F` [Compound 768, 2-(3,4-difluorophenoxy)-N-[(2S)-4-{2-[3-fluoro-4-(methanesulfonyl)phenoxy]acetamido}-2-hydroxybicyclo[2.2.2]octan-1-yl]acetamide]: the EC50 is 50 to 250 nM.

`CS(=O)(=O)c1ccc(OCC(=O)NC23CCC(NC(=O)COc4ccc(Cl)c(F)c4)(CC2)[C@@H](O)C3)cc1F` [Compound 769, 2-(4-chloro-3-fluorophenoxy)-N-[(2S)-4-{2-[3-fluoro-4-(methanesulfonyl)phenoxy]acetamido}-2-hydroxybicyclo[2.2.2]octan-1-yl]acetamide]: the EC50 was 10 to 50 nM.

With `COc1cc(OCC(=O)NC23CCC(NC(=O)COc4ccc(F)c(F)c4)(CC2)C[C@@H]3O)ccc1F` [Compound 770, 2-(3,4-difluorophenoxy)-N-{(3S)-4-[2-(4-fluoro-3-methoxyphenoxy)acetamido]-3-hydroxybicyclo[2.2.2]octan-1-yl}acetamide], the concentration giving a half-maximal response (EC50) is below 10 nM.

As to `COc1cc(OCC(=O)NC23CCC(NC(=O)COc4ccc(Cl)c(F)c4)(CC2)C[C@@H]3O)ccc1F` [Compound 771, 2-(4-chloro-3-fluorophenoxy)-N-{(3S)-4-[2-(4-fluoro-3-methoxyphenoxy)acetamido]-3-hydroxybicyclo[2.2.2]octan-1-yl}acetamide], the EC50 is below 10 nM.

Turning to `O=C(COc1ccc(Cl)c(F)c1)NC12CCC(NC(=O)COc3ccc(F)c(OC(F)(F)F)c3)(CC1)[C@@H](O)C2` [Compound 772, 2-(4-chloro-3-fluorophenoxy)-N-[(3S)-4-{2-[4-fluoro-3-(trifluoromethoxy)phenoxy]acetamido}-3-hydroxybicyclo[2.2.2]octan-1-yl]acetamide], the EC50 is below 10 nM.

Consider `O=C(COc1ccc(C(F)(F)F)c(F)c1)NC12CCC(NC(=O)COc3ccc4c(c3)OC(F)(F)O4)(CC1)[C@@H](O)C2` [Compound 773, 2-[(2,2-difluoro-2H-1,3-benzodioxol-5-yl)oxy]-N-[(2S)-4-{2-[3-fluoro-4-(trifluoromethyl)phenoxy]acetamido}-2-hydroxybicyclo[2.2.2]octan-1-yl]acetamide], for which the EC50 is below 10 nM.

With `O=C(COc1ccc(F)c(C(F)F)c1)NC12CCC(NC(=O)COc3ccc(Cl)cc3)(CC1)[C@@H](O)C2` [Compound 774, 2-(4-chlorophenoxy)-N-[(2S)-4-{2-[3-(difluoromethyl)-4-fluorophenoxy]acetamido}-2-hydroxybicyclo[2.2.2]octan-1-yl]acetamide], the concentration for a half-maximal effect (EC50) was below 10 nM.

On to `O=C(COc1ccc(F)c(C(F)F)c1)NC12CCC(NC(=O)COc3ccc(F)c(F)c3)(CC1)[C@@H](O)C2` [Compound 775, 2-[3-(difluoromethyl)-4-fluorophenoxy]-N-{(3S)-4-[2-(3,4-difluorophenoxy)acetamido]-3-hydroxybicyclo[2.2.2]octan-1-yl}acetamide], for which the EC50 was below 10 nM.

For the molecule `COCc1ccccc1OCC(=O)NC12CCC(NC(=O)COc3ccc(Cl)c(F)c3)(CC1)[C@@H](O)C2` [Compound 776, 2-(4-chloro-3-fluorophenoxy)-N-[(2S)-2-hydroxy-4-{2-[2-(methoxymethyl)phenoxy]acetamido}bicyclo[2.2.2]octan-1-yl]acetamide], the concentration giving a half-maximal response (EC50) is above 2000 nM.

As to `COCc1cccc(OCC(=O)NC23CCC(NC(=O)COc4ccc(Cl)c(F)c4)(CC2)[C@@H](O)C3)c1` [Compound 777, 2-(4-chloro-3-fluorophenoxy)-N-[(2S)-2-hydroxy-4-{2-[3-(methoxymethyl)phenoxy]acetamido}bicyclo[2.2.2]octan-1-yl]acetamide], the half-maximal effective concentration (EC50) was in the range of 10 to 50 nM.

On to `CCc1ccc(OCC(=O)NC23CCC(NC(=O)COc4ccc(F)c(F)c4)(CC2)[C@@H](O)C3)cc1` [Compound 778, 2-(3,4-difluorophenoxy)-N-{(2S)-4-[2-(4-ethylphenoxy)acetamido]-2-hydroxybicyclo[2.2.2]octan-1-yl}acetamide], for which the EC50 was 10 to 50 nM.

In the case of `O=C(COc1ccc(Cl)c(F)c1)NC12CC(NC(=O)C(OCCO)c3ccc(F)cc3)(C1)C2` (stereo not drawn) [Compound 779, N-{3-[2-(4-chloro-3-fluorophenoxy)acetamido]bicyclo[1.1.1]pentan-1-yl}-2-(4-fluorophenyl)-2-(2-hydroxyethoxy)acetamide], the EC50 was above 2000 nM.

As to `O=C(COc1ccc(OC(F)(F)F)cc1)NC12CCC(NC(=O)COc3ccc4c(c3)OC(F)(F)O4)(CC1)[C@@H](O)C2` [Compound 780, 2-[(2,2-difluoro-2H-1,3-benzodioxol-5-yl)oxy]-N-[(2S)-2-hydroxy-4-{2-[4-(trifluoromethoxy)phenoxy]acetamido}bicyclo[2.2.2]octan-1-yl]acetamide], the EC50 is below 10 nM.
